The target of assay [1] is T1, Vascular endothelial growth factor receptor 2 (Homo sapiens, UniProt P35968). The assay is described as follows: Inhibition of VEGFR-2 (978 to 1408 residues) (unknown origin) using pEY (4:1) as substrate for 20 min in the presence of ATP by ELISA method. In general terms: ELISA stands for enzyme-linked immunosorbent assay.
The target of assay [2] is T1, Vascular endothelial growth factor receptor 2. The assay is described as follows: Inhibition of human VEGFR-2.
For assay [3] the target is unchanged. The assay is described as follows: Inhibition of human recombinant VEGFR-2.
Assay [4] has the same target. The assay is described as follows: Inhibition of VEGFR-2 (unknown origin) incubated for 45 mins by ELISA.
Assay [5] has the same target. Put plainly: Inhibition of VEGFR-2 (unknown origin) kinase activity using poly(Glu-Tyr) at 4:1 ratio as substrate in presence of ATP incubated for 5 mins by ELISA method.
For assay [6] the target is unchanged. The assay is described as follows: Inhibition of recombinant VEGFR-2 (unknown origin).
The target is the same in assay [7]. The assay is described as follows: Inhibition of VEGFR-2 (unknown origin) incubated for […] by ELISA method.
For assay [8] the target is unchanged. Put plainly: Inhibition of human recombinant VEGFR-2 kinase activity using poly(Glu-Tyr) at 4:1 ratio as substrate incubated for 60 mins by ELISA.
Assay [9] shares this target. The assay is described as follows: Inhibition of human recombinant VEGFR-2 in the presence of ATP.
Assay [10] shares this target. Put plainly: Inhibition of VEGFR-2 (unknown origin).
Assay [11] is described as follows: Inhibition of tyrosine kinase in human PANC-1 cells. The class given is cell-based.
In assay [12] the target is T1, Vascular endothelial growth factor receptor 2. The assay is described as follows: Inhibition of human recombinant VEGFR-2 kinase activity using poly(Glu-Tyr) at 4:1 ratio as substrate incubated for 60 mins by ELISA method.
The target is the same in assay [13]. The assay is described as follows: Inhibition of human recombinant VEGFR-2 expressed in Sf21 insect cells incubated for 60 mins by ELISA.
The test system of assay [14] is MDA-MB-231. Put plainly: Antiproliferative activity against human MDA-MB-231 cells assessed as cell growth inhibition measured after 48 hrs by MTT assay. The class given is functional, cell-based. To be noted: MDA-MB-231, 48 h. (Tetrazolium assays rely on reduction of a dye to a coloured formazan, in cell work by metabolically active cells.)
The subject of assay [15] is MCF7. Put plainly: Anticancer activity against human MCF7 cells assessed as inhibition of cell growth incubated for 24 hrs by MTT assay. It counts as functional, cell-based. To be noted: MCF7, 24 h.
In assay [16] the target is T1, Vascular endothelial growth factor receptor 2. Put plainly: Inhibition of human recombinant VEGFR-2 by ELISA method.
Assay [17] relates to HepG2. Put plainly: Anticancer activity against human HepG2 cells assessed as inhibition of cell growth incubated for 24 hrs by MTT assay. The following applies: HepG2, 24 h. The class given is functional, cell-based.
For assay [18], the target named is T1, Vascular endothelial growth factor receptor 2. Put plainly: Inhibition of VEGFR-2 (unknown origin).
For assay [19] the target is unchanged. The assay is described as follows: Inhibition of human recombinant VEGFR-2 kinase activity using poly(Glu-Tyr) at 4:1 ratio as substrate incubated for […] by ELISA method.
The target is the same in assay [20]. Put plainly: Inhibition of recombinant VEGFR-2 (unknown origin). This is another data set of the same source.
Assay [21] concerns MDA-MB-231. Put plainly: Cytotoxicity against human MDA-MB-231 cells assessed as reduction in cell viability incubated for 72 hrs by MTT assay. The class given is functional, cell-based. To be noted: MDA-MB-231, 72 h.
For a further assay, the system named is HeLa. Put plainly: Cytotoxicity against human HeLa cells assessed as reduction in cell viability incubated for 24 hrs by MTT assay. It counts as functional, cell-based.
For the next assay, the system named is A549. Put plainly: Cytotoxicity against human A549 cells assessed as reduction in cell viability incubated for 72 hrs by MTT assay. The following applies: A549, 72 h. The class given is functional, cell-based.
The test system of another assay is PC-3. Put plainly: Antiproliferative activity against human PC-3 cells assessed as inhibition of cell growth incubated for 48 hrs by MTT assay. The class given is functional, cell-based. The following applies: PC-3, 48 h.
Assay [22] deals with MCF7. The assay is described as follows: Antiproliferative activity against human MCF7 cells assessed as reduction in cell viability incubated for 24 hrs by MTT assay. The class given is functional, cell-based. To be noted: MCF7, 24 h.
Assay [23] deals with HepG2. Put plainly: Antiproliferative activity against human HepG2 cells assessed as reduction in cell viability by MTT assay. It counts as functional, cell-based.
Assay [24] addresses T1, Vascular endothelial growth factor receptor 2. The assay is described as follows: Inhibition of VEGFR-2 (unknown origin) kinase activity using poly(Glu-Tyr) at 4:1 ratio as substrate in presence of ATP incubated for 1 hr by ELISA.
The subject of assay [25] is HepG2. The assay is described as follows: Anticancer activity against human HepG2 cells assessed as reduction in cell viability measured after 72 hrs by MTT assay. It counts as functional, cell-based. To be noted: HepG2, 72 h.
Assay [26] concerns the target T1, Vascular endothelial growth factor receptor 2. Put plainly: Inhibition of human VEGFR-2 kinase activity using poly(Glu-Tyr) at 4:1 ratio as substrate preincubated for 30 mins followed by compound addition incubated for 1 hrs by ELISA.
For assay [27], the system named is HepG2. Put plainly: Cytotoxicity against human HepG2 cells assessed as cell growth inhibition. It counts as functional, cell-based.
For assay [28], the system named is MCF7. The assay is described as follows: Cytotoxicity against human MCF7 cells assessed as cell growth inhibition. It counts as functional, cell-based.

For orientation: IC50 means the concentration that gives 50% inhibition.

The structures appear in SMILES notation.

T1 sequence (P35968 whole entry, the tested form may be a part): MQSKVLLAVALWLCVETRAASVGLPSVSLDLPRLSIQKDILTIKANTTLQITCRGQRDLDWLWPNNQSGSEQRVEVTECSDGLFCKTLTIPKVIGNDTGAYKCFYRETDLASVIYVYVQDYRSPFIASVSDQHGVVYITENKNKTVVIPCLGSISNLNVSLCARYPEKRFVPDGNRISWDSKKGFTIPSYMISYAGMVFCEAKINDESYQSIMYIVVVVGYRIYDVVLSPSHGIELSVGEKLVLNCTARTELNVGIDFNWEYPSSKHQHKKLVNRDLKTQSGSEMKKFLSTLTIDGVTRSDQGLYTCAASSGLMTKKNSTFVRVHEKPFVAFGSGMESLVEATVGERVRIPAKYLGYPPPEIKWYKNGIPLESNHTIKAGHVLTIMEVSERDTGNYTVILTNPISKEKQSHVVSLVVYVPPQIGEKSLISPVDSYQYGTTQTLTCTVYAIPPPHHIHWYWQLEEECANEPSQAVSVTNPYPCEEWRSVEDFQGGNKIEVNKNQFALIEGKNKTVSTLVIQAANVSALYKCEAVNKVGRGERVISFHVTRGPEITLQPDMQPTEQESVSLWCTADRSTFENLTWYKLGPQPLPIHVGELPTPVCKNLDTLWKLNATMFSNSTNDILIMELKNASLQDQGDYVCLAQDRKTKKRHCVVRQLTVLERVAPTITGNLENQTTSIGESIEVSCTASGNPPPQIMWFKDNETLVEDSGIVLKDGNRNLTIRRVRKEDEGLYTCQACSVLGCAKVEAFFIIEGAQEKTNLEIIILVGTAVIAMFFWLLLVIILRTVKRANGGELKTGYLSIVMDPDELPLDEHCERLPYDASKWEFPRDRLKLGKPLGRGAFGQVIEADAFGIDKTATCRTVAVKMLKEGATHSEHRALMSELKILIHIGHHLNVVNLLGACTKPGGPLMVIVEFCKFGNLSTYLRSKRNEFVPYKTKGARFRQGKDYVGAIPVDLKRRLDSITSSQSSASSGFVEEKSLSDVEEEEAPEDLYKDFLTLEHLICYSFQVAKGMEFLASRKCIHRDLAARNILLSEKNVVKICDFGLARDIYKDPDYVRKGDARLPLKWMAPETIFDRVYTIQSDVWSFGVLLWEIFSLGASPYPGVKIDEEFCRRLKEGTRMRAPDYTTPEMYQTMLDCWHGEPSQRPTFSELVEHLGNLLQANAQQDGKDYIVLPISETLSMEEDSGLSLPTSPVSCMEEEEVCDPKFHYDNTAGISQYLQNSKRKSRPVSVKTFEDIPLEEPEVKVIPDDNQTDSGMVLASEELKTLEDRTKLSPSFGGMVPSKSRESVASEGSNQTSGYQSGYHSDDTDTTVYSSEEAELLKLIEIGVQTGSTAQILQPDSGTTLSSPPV

Regarding `CC1=NN(c2ccc([N+](=O)[O-])cc2[N+](=O)[O-])C(=O)/C1=C\c1cn(-c2ccccc2)nc1-c1cccc([N+](=O)[O-])c1`, the IC50 in [1] worked out at 820 nM. In [2], `CCOc1ccc(Nc2nnc3c4c(cccc24)NC(=S)N3Cc2ccccc2)cc1` gave an IC50 of 30 nM.

On to `N#CCc1nnc(NC(=O)c2ccco2)s1`, for which, in assay [3], the concentration for half-maximal inhibition (IC50) is 7.4 nM. In [4], `Cc1ccc(C)c(NC(=O)CSc2nc3ccccc3c(=O)n2-c2ccc(S(N)(=O)=O)cc2)c1` registered an IC50 of 480 nM. For the molecule `Cc1nc2ccccc2n(CC(=O)Nc2ccc(C(=O)NCc3ccccc3)cc2)c1=O`, the IC50 in assay [5] stood at 1090 nM. For the molecule `COc1ccc(C2=Nn3c(N/N=C4\C(=O)Nc5ccc(F)cc54)nnc3SC2)cc1`, the IC50 in [6] was found to be 435 nM. In assay [7], `O=C(CSc1nc2ccc([N+](=O)[O-])cc2c(=O)n1-c1ccccc1)NNC(=O)c1ccccc1` gave a concentration for half-maximal inhibition (IC50) of 4800 nM.

Regarding `CCc1ccc(NC(=O)c2ccc(NC(=O)CN3C(=O)S/C(=C/c4ccccc4)C3=O)cc2)cc1`, the half-maximal inhibitory concentration (IC50) in [8] was 220 nM.

For the molecule `NC(=O)CCn1cc(-c2ccc3ncnc(Nc4cc(O)ccc4F)c3c2)nn1`, the concentration for half-maximal inhibition (IC50) in assay [9] turned out to be 12 nM.

In the case of `COc1cc2ncnc(Oc3ccc(NC(=O)C4(C(=O)Nc5ccc(F)cc5)CC4)cc3F)c2c2c1OCCO2`, in assay [10], half-maximal inhibition (IC50) required 3.5 nM. As to `N=c1cc(N)nc2sc(NC(=O)c3cccs3)nn12`, in [11], the IC50 came out at 8.2 nM. `COC(C)Oc1cc2ncnc(Oc3ccc(NC(=O)C4(C(=O)Nc5ccc(F)cc5)CC4)cc3F)c2c2c1OCCO2` (stereo not given): in [10], the midpoint of inhibition, the IC50, lay at 3.6 nM. Turning to `CC(=O)c1ccc(NC(=O)CSC2=NC(=O)C(C#N)C(c3ccccc3)N2)cc1` (stereo not given), the IC50 in assay [12] stood at 386 nM.

Take `COc1cc(C2NC(SCC(=O)Nc3ccc(C(C)=O)cc3)=NC(=O)C2C#N)cc(OC)c1OC` (stereo not given): the concentration for half-maximal inhibition (IC50) in assay [12] amounted to 199 nM. Regarding `COc1cc(/C=C2\CCCn3c2nc2c(cnn2C)c3=O)cc(OC)c1OC`, the figures for the IC50 (in assay [13]; with MDA-MB-231 [14]) were 13.2 nM and 14.2 nM, respectively. In turn, `O=C(NC1=NN2C(=O)/C(=C\c3ccco3)N=C2S1)c1cccs1` had an IC50 in [11] of 9.4 nM. Regarding `COc1ccc(NC(=O)c2ccc(NC(=O)CSc3nnc4c5nncn5c5ccccc5n34)cc2)cc1`, the IC50 with MCF7 [15] worked out at 4400 nM; in assay [16], 3200 nM; in the assay on HepG2 [17], 3300 nM. In the case of `O=C(N/N=C/c1ccc(Cl)cc1)c1ccc(Nc2ncnc3sc4c(c23)CCCC4)cc1`, inhibition in assay [18] was half-maximal at 230 nM (IC50). As for `COc1cc(/C=C/C(=O)c2ccc(N3CCNCC3)cc2)ccc1F`, in assay [19], the IC50 came out at 570 nM. `COc1cccc(CNC(=O)CSc2nc3ccccc3c(=O)n2-c2ccc(S(N)(=O)=O)cc2)c1OC`: in [4], the 50% inhibitory concentration (IC50) amounted to 240 nM. As to `O=C(CCSc1nc2ccccc2o1)Nc1ccc(S(=O)(=O)NC(=O)NC2CCCCC2)cc1`, the IC50 in assay [20] was found to be 80 nM. As to `CCOC(=O)CSc1nc2ccc(C)cc2c(=O)n1-c1ccc(F)cc1`, the results for the IC50 with MDA-MB-231 [21], in the assay with HeLa and with A549 were 1190 nM, 1260 nM and 570 nM, respectively.

With `NC(=O)CCn1cc(-c2ccc3ncnc(Nc4ccc(F)c(O)c4)c3c2)nn1`, in assay [9], the IC50 was 64 nM. On to `N#C/C(=C\c1cccs1)c1nnc(NC(=O)c2ccco2)s1`, for which the IC50 in assay [3] was found to be 7.6 nM. On to `O=C(/C=C/c1cccc(F)c1)c1ccc(N2CCNCC2)cc1`, for which, in [19], the IC50 was determined as 800 nM. For the molecule `CC(=O)N1N=C(C2CCCO2)CC1c1cn(-c2ccccc2)nc1-c1cccc([N+](=O)[O-])c1` (stereo not given), the IC50 in [1] was 220 nM. As to `Cc1nc2ccccc2n(CC(=O)Nc2ccc(C(=O)NNC(=O)c3ccccc3O)cc2)c1=O`, the IC50 in [5] came out at 1190 nM. As to `O=C(CN1C(=O)S/C(=C/c2ccccc2)C1=O)Nc1ccc(C(=O)NCc2ccccc2)cc1`, the IC50 in assay [8] came out at 280 nM. Regarding `O=C(CSc1nnc2c3nncn3c3ccccc3n12)Nc1ccc(C(=O)Nc2cncs2)cc1`, in assay [16], the IC50 worked out at 3100 nM. Consider `CCn1c(SCC(=O)NNC(=O)c2ccccc2)nc2ccc([N+](=O)[O-])cc2c1=O`, for which the IC50 with PC-3 stood at 26100 nM; in [7], 4600 nM; in the assay on MCF7 [22], 30800 nM; in the assay with HepG2 [23], 17200 nM. As for `N#Cc1c(-c2ccc([N+](=O)[O-])cc2)cc(-c2ccc3ccccc3c2)nc1NN`, the IC50 in assay [24] was found to be 0.34 nM.

The molecule `C/C(=N\NC(=O)c1ccc(Nc2ncnc3sc4c(c23)CCCC4)cc1)c1ccccc1` registered an IC50 in assay [18] of 360 nM. As to `N#Cc1c(-c2ccc(Cl)cc2)cc(-c2ccc3ccccc3c2)nc1NN`, the IC50 in assay [24] was 0.25 nM. In the case of `Fc1ccc(Nc2nnc3c4c(cccc24)NC(=S)N3Cc2ccccc2)cc1`, the IC50 in the assay with HepG2 [25] worked out at 220 nM; in assay [2], 210 nM. As to `Cc1ccc(NC(=O)c2ccc(NC(=O)CN3C(=O)S/C(=C/c4ccccc4)C3=O)cc2)cc1`, the 50% inhibitory concentration (IC50) in assay [8] worked out at 250 nM.

On to `Cc1ccc(S(=O)(=O)Nc2ccc(-c3cc(-c4cccc(F)c4)c(C#N)c(N)n3)cc2)cc1`, for which the IC50 in assay [26] came to 3620 nM. As for `Cc1nc2ccccc2n(CC(=O)Nc2ccc(C(=O)NC(C)(C)C)cc2)c1=O`, the IC50 stood at 4500 nM in the assay on HepG2 [27] and 7700 nM in the assay with MCF7 [28]. On to `COC(C)Oc1cc2ncnc(Oc3ccc(NC(=O)C4(C(=O)Nc5ccc(F)cc5)CC4)cc3)c2c2c1OCCO2` (stereo not given), for which the IC50 in [10] stood at 8.8 nM. For the molecule `O=[N+]([O-])c1cccc(-c2nn(-c3ccccc3)cc2C2CC(C3CCCO3)=NN2c2ccccc2)c1` (stereo not given), the IC50 in assay [1] was found to be 910 nM. As for `COc1cc(-c2cc(-c3ccc4ccccc4c3)nc(NN)c2C#N)ccc1O`, in assay [24], the IC50 came to 0.19 nM.

Source of the values: ChEMBL document CHEMBL5376014, “Role of heterocycles in inhibition of VEGFR-2 - a recent update (2019-2022)” (RSC Med Chem, 2024).
